Measured values published in PMC5386260, “Acute development of cortical porosity and endosteal naïve bone formation from the daily but not weekly short-term administration of PTH in rabbit” (PLoS ONE, 2017).

What was measured:
[1] = system: kidneys, thyroid and parathyroid; assay: Histopathological examination of kidney, thyroid and parathyroid; details: rabbit, in vivo
Method: Calcein (Dojindo Laboratories, Kumamoto, Japan) was subcutaneously injected into each animal at a dose of 10 mg/kg body weight on days 13 and 5 before sacrifice for bone double labeling (1-7-1-3). After the dosing period, the animals were euthanized by exsanguination under anesthesia using thiopental. The left and right tibiae were collected for a micro-CT analysis and histomorphometry, respectively. The kidneys, thyroid and parathyroid of all animals were collected and fixed in 10% neutral buffered formalin for a histopathological examination. The left tibiae were packed in plastic bags and stored at -30°C until use in a micro-CT analysis and mechanical testing. The right tibiae were fixed in 70% ethanol, stained with Villanueva bone stain, dehydrated in a graded ethanol series, defatted in acetone, and embedded in polymethyl methacrylate (Wako Pure Chemical Industries, Osaka, Japan). Thin ground sections of 10–20 μm in thickness were prepared using a micro cutting machine and a grinding machine (EXAKT, Germany) from a cross-section at a plane that was 3 mm proximal from the tibiofibular junction, and were subjected to bone histomorphometry. Right iliac crest were also fixed in 70% ethanol and processed for Vilanueva bone stain, dehydration, defattation, polymethyl methacrylate embedding and sectioning to 5 μm for three-dimensional second harmonic generation (3D-SHG) imaging. […]

renal function = details: rabbit, in vivo
Method: The serum samples collected for measurement of bone metabolic markers were also subjected to biochemical analysis to examine renal function. Serum blood urea nitrogen (BUN) and creatinine were measured using an autoanalyzer (Hitachi 7180 chemistry analyzer; Hitachi Ltd, Tokyo, Japan). Blood samples in all groups were collected at 0, 6, 24 hours after the administration of TPTD on days 1 and 22. Blood samples in the C, […] and […] groups were also collected at days 3 and 7 after on the 1st and 22nd days of administration. The samples were centrifuged at 1700 x g, at 4°C for 15 minutes in tubes with clot activator and serum was collected in order to measure the concentration of osteocalcin.

[2] = system: endosteal surface of rabbit tibiae; assay: DIC bright field and deconvolution fluorescence imaging of tibia sections; type: in vivo; details: daily administration (D20 and D40), 4 weeks
Method: Calcein (Dojindo Laboratories, Kumamoto, Japan) was subcutaneously injected into each animal at a dose of 10 mg/kg body weight on days 13 and 5 before sacrifice for bone double labeling (1-7-1-3). After the dosing period, the animals were euthanized by exsanguination under anesthesia using thiopental. The left and right tibiae were collected for a micro-CT analysis and histomorphometry, respectively. The kidneys, thyroid and parathyroid of all animals were collected and fixed in 10% neutral buffered formalin for a histopathological examination. The left tibiae were packed in plastic bags and stored at -30°C until use in a micro-CT analysis and mechanical testing. […]
Calcein-labeled undecalcified bone sections were subjected to imaging acquisition using a microscopy system, ECLIPSE Ni (Nikon, Tokyo, Japan) equipped with differential interference contrast microscopy (DIC) and objectives (Nikon), as follows: Plan Apo λ 10x (numerical aperture [N.A.] = 0.45), Plan Apo λ 20x (N.A. = 0.75), and Plan Apo λ 40x (N.A. = 0.95). The fluorescence signals were obtained using filter sets, GFP-B (excitation: 460–500 nm, DM: 505 nm, emission: 510–560 nm; Nikon) for calcein, and TxRed (excitation: 540–580 nm, DM: 595 nm, emission: 600–660 nm; Nikon) for auto-fluorescence derived from soft tissue. […] The fluorescence and DIC images were sequentially acquired, with a pixel size of 0.64 μm. […]

level of serum blood urea nitrogen (BUN), effect of TPTD (renal function): not significantly affected
level of serum creatinine, effect of TPTD (renal function): not significantly affected
SMILES: CC[C@H](C)[C@H](NC(=O)[C@H](CCC(=O)O)NC(=O)[C@H](CO)NC(=O)[C@@H](NC(=O)[C@@H](N)CO)C(C)C)C(=O)N[C@@H](CCC(N)=O)C(=O)N[C@@H](CC(C)C)C(=O)N[C@@H](CCSC)C(=O)N[C@@H](Cc1cnc[nH]1)C(=O)N[C@@H](CC(N)=O)C(=O)N[C@@H](CC(C)C)C(=O)NCC(=O)N[C@@H](CCCCN)C(=O)N[C@@H](Cc1cnc[nH]1)C(=O)N[C@@H](CC(C)C)C(=O)N[C@@H](CC(N)=O)C(=O)N[C@@H](CO)C(=O)N[C@@H](CCSC)C(=O)N[C@@H](CCC(=O)O)C(=O)N[C@@H](CCCN=C(N)N)C(=O)N[C@H](C(=O)N[C@@H](CCC(=O)O)C(=O)N[C@@H](Cc1c[nH]c2ccccc12)C(=O)N[C@@H](CC(C)C)C(=O)N[C@@H](CCCN=C(N)N)C(=O)N[C@@H](CCCCN)C(=O)N[C@@H](CCCCN)C(=O)N[C@@H](CC(C)C)C(=O)N[C@@H](CCC(N)=O)C(=O)N[C@@H](CC(=O)O)C(=O)N[C@H](C(=O)N[C@@H](Cc1cnc[nH]1)C(=O)N[C@@H](CC(N)=O)C(=O)N[C@@H](Cc1ccccc1)C(=O)O)C(C)C)C(C)C [TPTD, Teriparatide]
general histopathological examination, toxic effects [1]: No obvious toxic effects were observed in any specimens
microscopic findings at the endosteal surface [2]: development of bone marrow fibrosis and poorly mineralized and disorganized bone formation
